These results are taken from US11344496B2, “Methods for preparing stabilized amorphous drug formulations using acoustic fusion” (Merck Sharp & Dohme Corp., priority 2017, dated 2022).

Data set [1] in a line: BCS (Biopharmaceutics Classification System) designation by solubility and permeability. It counts as physicochemical. The arrangement: key: BCS Class 1 describes compounds with high permeability and high solubility.; BCS Class 2 describes compounds with high permeability and low solubility.; BCS Class 3 describes compounds with low permeability and high solubility.; BCS Class 4 describes compounds with low permeability and low solubility. From the text:
We tested a number of model drugs using the acoustic fusion methods, as described infra. The drugs tested are representative BCS Class 2 and Class 4 drugs. The BCS (Biopharmaceutics Classification System) designation is used to group compounds into classes based on their solubility and permeability (BCS guidance “Waiver of In vivo Bioavailability and Bioequivalence Studies for Immediate Release Solid Oral Dosage Forms Based on a Biopharmaceutics Classification System,” U.S. Department of Health and Human Services, Food and Drug Administration):
BCS Class 1 describes compounds with high permeability and high solubility.
BCS Class 2 describes compounds with high permeability and low solubility.
BCS Class 3 describes compounds with low permeability and high solubility.
BCS Class 4 describes compounds with low permeability and low solubility.
Under the BCS Classification System, a drug is considered highly soluble if fully solubilized in 250 mL water at the highest therapeutic dose at any physiological pH. A drug is considered highly permeable if the extent of oral absorption is greater than 90%.

Data set [2] in a line: Rat oral pharmacokinetic study of torcetrapib formulations. To be noted: male, Wistar-Han, plasma, rats, 10 mg/kg. It is filed as in vivo. The method, then:
The in vivo absorption of Torcetrapib after oral administration of the Torcetrapib-copovidone-TPGS dispersion described in Example 4 was investigated in rats at a dose level of 10 mg/kg. Materials and methods used for the rat pharmacokinetic study are provided below. Crystalline drug powders and drug-polymer dispersion formulations were also evaluated as control formulations. The drug powders and drug-polymer dispersions were dosed as suspensions in 0.5% of methylene cellulose. The Torcetrapib-polymer dispersion was used as a benchmark formulation for enhancing the drug's solubility and oral absorption.
Male Wistar-Han rats were used for oral administration studies. All animals were fasted overnight before dosing, provided water ad libitum, and fed 4 hours following drug treatment. The fasted animals were orally given torcetrapib formulations by gavage (n=3) at a torcetrapib dose of 10 mg/kg. The formulations included a suspension of crystalline torcetrapib powder in 0.5% of methyl cellulose (MC), a suspension of torcetrapib-polymer dispersion in 0.5% of acidified MC (5 mM HCl added to prevent dissolution of the polymer in the vehicle). Serial blood samples were collected at 0.25, 0.5, 1, 2, 4, 8, 12, 18, and 24 hour post-dose and placed into EDTA-containing tubes and centrifuged. […]
Torcetrapib plasma concentrations were determined by LC-MS/MS following protein precipitation with acetonitrile. […] Analyte response was measured by multiple reaction monitoring (MRM) of transitions unique to each compound.
Calibration curves were generated and verified using standard and quality control samples prepared from an initial weighing of high purity compound. […] The limit of quantification was 1 ng/mL. […]
Pharmacokinetic parameters were calculated by established non-compartmental methods. The area under the plasma concentration vs. time curve from time zero to time t(AUC0-t) was determined using the Watson software (version 7.3) with linear trapezoidal interpolation in the ascending slope and logarithmic trapezoidal interpolation in the descending slope.

In the case of `Cc1cccc(C)c1OCC(=O)N[C@@H](Cc1ccccc1)[C@@H](O)C[C@H](Cc1ccccc1)NC(=O)[C@H](C(C)C)N1CCCNC1=O` [Lopinavir, (αS)—N-[(1S,3S,4S)-4-[[2-(2,6-Dimethylphenoxy)acetyl]amino]-3-hydroxy-5-phenyl-1-(phenylmethyl)pentyl]tetrahydro-α-(1-methylethyl)-2-oxo-1(2H)-pyrimidineacetamide], the “BCS Class” value in data set [1] is reported as “BCS class 2”.
Consider `CCOC(=O)N1c2ccc(C(F)(F)F)cc2[C@@H](N(Cc2cc(C(F)(F)F)cc(C(F)(F)F)c2)C(=O)OC)C[C@H]1CC` [Torcetrapib, (2R,4S)-4-[(3,5-Bis-trifluoromethylbenzyl)methoxycarbonylamino]-2-ethyl-6-trifluoromethyl-3,4-dihydro-2H-quinoline-1-carboxylic acid ethyl ester], for which, in data set [1], the “BCS Class” value is “BCS Class 2”. Besides, the time to peak (Tmax) (commonly the time at which the peak concentration occurs) in data set [2] (mean n = 3) was 6 h. For the same molecule, in data set [2] (mean n = 3, read-out: AUC(0-24)), the AUC(0-t) amounted to 707 nM·h. The highest level in data set [2] (suspension in 0.5% methyl cellulose, mean n = 3) (Cmax) was 0.084 µM.
